Results reported in paper PMC5021990 (Biochemical and biophysical research communications, 2016).

Experiments:
[1] = target: FnLpxA (Francisella tularensis, UniProt A0Q7Y0); conditions: 20 μM R,S-3-hydroxypalmitoyl-ACP, 100 μM [α-32P]UDP-GlcNAc, 40 mM HEPES pH 7.4, 100 mM NaCl, 30 °C; labelled compound
[2] = target: Francisella novicida LpxA (UDP-N-acetylglucosamine acyltransferase), C-terminally His6-tagged (Francisella novicida); assay: SEC

Molecule | TLC radioassay of acyl transfer, PhosphorImager [1] | stoichiometry N [2]
CC(=O)N[C@H]1[C@@H](OP(=O)(O)OP(=O)(O)OC[C@H]2O[C@@H](n3ccc(=O)[nH]c3=O)[C@H](O)[C@@H]2O)O[C@H](CO)[C@@H](O)[C@@H]1O [UDP-GlcNAc] | purified FnLpxA transfers a 3-hydroxypalmitoyl group from 3-hydroxypalmitoyl-ACP to the 3-OH of UDP-GlcNAc | 
Francisella novicida LpxA (UDP-N-acetylglucosamine acyltransferase), C-terminally His6-tagged (enzyme) |  | 3
